Patent US20050232896A1, “Cd137 as a proliferation factor for hematopoietic stem cells” (priority 2001, published 2005)

Key:
[1] = test system: bone marrow cell population; assay: In vivo reconstitution of the hematopoietic system, protein A damage, bone marrow composition; design: species or system NMRI mice; details: day 21, average of three mice
Excerpt: CD137 needs to be immobilized onto a carrier or crosslinked to be functional according to the invention. Protein A was chosen as a carrier for in vivo studies, as it has been effective in crosslinking CD137-Fc in the experiment described in Example 3. CD137-Fc or Fc control protein were immobilized on protein A and injected into NMRI mice. Besides immobilizing CD137-Fe or Fc, protein A has the additional effect of being toxic for cells of the hematopoietic system. This latter activity of protein A exerts a damaging effect on the hematopoietic system of mice as does chemotherapy.
Three mice per group were used. Each mouse received 100 μg of immobilized CD137-Fc or an equimolar amount of immobilized Fc or protein A alone. Mice were killed after 3 weeks and the bone marrow was isolated from the femurs and analysed (Table 2).

[2] = test system: Bone marrow cells; assay: In vivo reconstitution after Alkeran, bone marrow composition; design: species or system NMRI mice; details: Alkeran experiment, day 21, average of three mice
Procedure: (§1) In the next experiment NMRI mice were treated with Alkeran, a cytotoxic drug regularly used for human cancer therapy. Alkeran was given i.p. on days 1, 3 and 5. Mice received 100 μg of CD137-Fc immobilized on protein A or equivalent amounts of immobilized Fc control protein. Three mice were used per group. The relative composition of the bone marrow cells (Table 3) and the absolute number of cells in the peripheral blood (Table 4) were determined after 21 days.

[3] = test system: cells in the peripheral blood; assay: In vivo reconstitution after Alkeran, absolute cell numbers in peripheral blood; design: species or system NMRI mice; details: after 21 days, average of three mice
Procedure: as §1

[4] = test system: erythroid lineage, human CD34+ progenitors; assay: CELISA lineage assay, erythroid lineage (glycophorin A); assay type: cell-based; details: growth factors present
Procedure: (§2) The effects of CD137 on the different hematopoietic lineages were evaluated using a cell based immunoassay, which quantifies expression of lineage-specific markers (CELISA, BioWhittaker, Walkersville, Md., USA).
(§3) Progenitors for the myeloid and erythroid lineages were normal human CD34+ cells, which had been isolated from the bone marrow of healthy volunteers by positive selection using the “Direct CD34 Progenitor Kit” (Miltenyi, Bergisch Gladbach, Germany). Progenitors for the megakaryocyte lineage were normal human CD34+ cells, which had been isolated from the peripheral blood of healthy G-CSF-treated volunteers.
(§4) 96-well polystyrene plates were precoated with four dilutions of CD137-Fc or Fc control protein at 4° C. overnight or with the dilution buffer PBS. The following additional controls were included in the experiment: no addition; Camptothecin, a cytotoxic compound, at 0.005 μM (condition 1) and at 0.5 μM (condition 2); stem Cell Factor (SCF) at a concentration of 125 ng/ml. […]

[5] = test system: megakaryocyte lineage, human CD34+ progenitors; assay: CELISA lineage assay, megakaryocyte lineage (CD41a); assay type: cell-based; details: growth factors present
Procedure: as §2, §3, §4

[6] = test system: myeloid lineage, human CD34+ progenitors; assay: CELISA lineage assay, myeloid lineage (CD11b); assay type: cell-based; details: growth factors present
Procedure: as §2, §3
96-well polystyrene plates were precoated with four dilutions of CD137-Fc or Fc control protein at 4° C. overnight or with the dilution buffer PBS. […]
In this example, the influence of growth factor concentrations and potential additive or synergistic effects of these growth factors with CD137 were analysed in more detail. […]
Differentiation was assessed per CELISA (BioWhittaker), measuring the expression of the myeloid-specific protein CD11b. Proliferation was determined using the ViaLight system (BioWhittaker), which measures the amount of ATP in the culture. […]

“Protein A: carrier for crosslinking CD137-Fc; toxic for cells of the hematopoietic system” was tested, and the “R1 (91% erythroid)” value [1] was 69.18 Percentage of total cells, the “R3 (49% undifferentiated blasts, 25% lymphoblasts, 18% basophil erythroblasts)” value [1] was 1.81 Percentage of total cells and the “R4 (50% undifferentiated blasts, 30% myeloid mainly und. precursors, 20% erythroid)” value [1] was 1.97 Percentage of total cells. For the same compound, the “R5 (91% granulocytes)” value [1] was 1.12 Percentage of total cells, the “R6 (74% monocytes, 20% myeloid precursors)” value [1] was 0.63 Percentage of total cells and the “R5 (91% granulocytes)” value ([1]; listed as protein A) was “reduced drastically”. For the same compound, the “R6 (74% monocytes, 20% myeloid precursors)” value ([1]; listed as protein A) was “reduced drastically”.

For N[C@@H](Cc1ccc(N(CCCl)CCCl)cc1)C(=O)O [Alkeran], the R1 [2] was 60.21 Percentage of total cells, the R3 [2] was 0.66 Percentage of total cells and the R4 [2] was 2.28 Percentage of total cells. For the same compound, the “Total number of leukocytes in the peripheral blood” value [3] was 830 per μl and the “Total number of thrombocytes in the peripheral blood” value [3] was 581.000 per μl.

In the case of CC[C@@]1(O)C(=O)OCc2c1cc1n(c2=O)Cc2cc3ccccc3nc2-1 [Camptothecin], the “growth inhibition, erythroid lineage” value ([4]; 0.005 uM) is reported as “minimal growth inhibition”, the “growth inhibition, erythroid lineage” value ([4]; 0.05 uM) is reported as “inhibited growth to a greater extent” and the “growth inhibition, megakaryocyte lineage” value ([5]; 0.005 uM) is reported as “minimal growth inhibition”. For the same compound, the “growth inhibition, megakaryocyte lineage” value ([5]; 0.05 uM) was “inhibited growth to a greater extent”, the “growth inhibition, myeloid lineage” value ([6]; 0.005 uM) was “minimal growth inhibition” and the “growth inhibition, myeloid lineage” value ([6]; 0.05 uM) was “inhibited growth to a greater extent”.
